According to patent US20130005764A1, “QUININE DOSAGE FORMS AND METHODS OF USE THEREOF” (priority 2006, published 2013):
Structures can show the parent of a compound that is named as a salt. Where two headings read alike, the source gives them in different places.

Assays:
[1] = Mean plasma quinine concentrations over 24 hours following a single oral dose of quinine sulfate (Example 1, Studies 1 and 2); format: in vivo, human; conditions: Study 2 C: single oral 324 mg capsule, fasting; 0 hours
[2] = human, in vivo, po
[3] = Non-transformed data, least squares mean; 324 mg, fasted conditions
[4] = in vivo
[5] = in vivo; remark: listed apart in the source
[6] = 2 × 324 mg
[7] = for AUC0-INF / AUC0-t / Cmax: 260 mg, 1 capsule (dose adjusted to 1.25 × 324 mg)
[8] = dosing an amount between 324 mg to 658 mg, fasted
[9] = Ln-transformed data, geometric mean, fasted conditions
[10] = Non-transformed data, least squares mean, fasted conditions
[11] = Non-transformed data, least squares mean, fed conditions
[12] = Ln-transformed data, geometric mean, fasted
[13] = Non-transformed data, least squares mean, fasted

## C=C[C@H]1C[N@@]2CC[C@H]1C[C@H]2[C@H](O)c1ccnc2ccc(OC)cc12 [Quinine Sulfate, cinchonan-9-ol, 6′-methoxy-, (8α,9R)-, sulfate (2:1)]
[1]
  Mean Plasma Concentration: 0; ng/ml
[2]; 324 mg
  mean±SD maximum QTc change from baseline around the quinine Tmax: 0.01 ± 0.019 s
[2]; 648 mg
  mean±SD maximum QTc change from baseline around the quinine Tmax: 0.012 ± 0.018 s
[3]
  kelim: 0.0564
[4]; human, 648 mg
  Tmax: 2.8 h
[4]
  dose proportionality (Cmax): nonlinear dose proportionality
[5]; human, 324 mg
  Tmax: 2.6 h
[5]; po
  Cmax and AUC0-t between the fed and fasted states: substantially unchanged
[6]; [9]
  AUC0-INF: 50005.77 ng·h/mL
  AUC0-t: 47258.21 ng·h/mL
  Cmax: 3197.25 ng/mL
[6]; Ln-transformed data, geometric mean, fed conditions
  Cmax: 3332.41 ng/mL
[6]; [10]
  AUC0-INF: 52643.14 ng·h/mL
  AUC0-t: 49484.64 ng·h/mL
  Cmax: 3293.84 ng/mL
  Tmax: 2.68
[6]; [11]
  AUC0-INF: 54409.12 ng·h/mL
  AUC0-t: 51228.07 ng·h/mL
[7]; [12]
  AUC0-INF: 32072.92 ng·h/mL
  AUC0-t: 30019.28 ng·h/mL
  Cmax: 2251.55 ng/mL
[7]; [13]
  AUC0-INF: 33582.46 ng·h/mL
  AUC0-t: 31285.26 ng·h/mL
  Cmax: 2310.90 ng/mL
[7]; Non-transformed data, least squares mean, 324 mg, 1 capsule, fasted
  Tmax: 2.75
[7]; dose amount between 280 mg to 324 mg
  pharmacokinetic profile proportionality to dose: linearly proportional
[8]
  pharmacokinetic profile proportionality to dose: not linearly proportional
